In PMC9787607, “A Novel Protocol for the Synthesis of 1,2,4-Oxadiazoles Active against Trypanosomatids and Drug-Resistant Leukemia Cell Lines” (Tropical Medicine and Infectious Disease, 2022):

Legend:
[1] = target: T1, human serum albumin (HSA) (Homo sapiens, UniProt P02768); test: Steady-state fluorescence quenching of HSA; assay type: binding; conditions: for KSV (Stern-Volmer quenching constant) / kq (bimolecular quenching rate constant) / n (number of binding sites): PBS
T1 construct: purchased Sigma-Aldrich A3782-1G
T1 sequence (P02768 25-609): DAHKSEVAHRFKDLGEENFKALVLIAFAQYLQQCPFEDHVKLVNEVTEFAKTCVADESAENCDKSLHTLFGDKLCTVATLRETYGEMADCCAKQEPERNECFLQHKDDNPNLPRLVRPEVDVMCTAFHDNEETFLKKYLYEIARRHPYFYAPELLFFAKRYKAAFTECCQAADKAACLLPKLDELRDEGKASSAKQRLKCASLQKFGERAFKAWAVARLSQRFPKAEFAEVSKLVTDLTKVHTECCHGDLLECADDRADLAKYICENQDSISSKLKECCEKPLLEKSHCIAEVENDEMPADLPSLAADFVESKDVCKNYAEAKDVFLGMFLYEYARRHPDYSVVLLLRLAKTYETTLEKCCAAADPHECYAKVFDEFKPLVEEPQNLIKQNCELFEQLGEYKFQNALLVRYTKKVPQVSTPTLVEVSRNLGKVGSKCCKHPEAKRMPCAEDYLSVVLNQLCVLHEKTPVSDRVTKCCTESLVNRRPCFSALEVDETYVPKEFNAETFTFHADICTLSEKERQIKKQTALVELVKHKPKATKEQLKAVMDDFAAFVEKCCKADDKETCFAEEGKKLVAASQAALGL
Experimental: Steady-state fluorescence and circular dichroism (CD) spectra were measured on a Jasco J-815 optical spectrometer employing a Jasco PFD-425S15F thermostatic cuvette holder. All spectra were recorded with appropriate background corrections. For the steady-state fluorescence data, inner filter corrections were performed, following the literature.
The steady-state fluorescence measurements were carried out in the 290–450 nm range (λexc = 280 nm) at 289, 296, 303, 310, and 317 K. The addition of compound 23 to a 3.0 mL HSA solution (1.0 × 10^−5 M, in PBS) was done manually, achieving final concentrations of 0.17, 0.33, 0.50, 0.66, 0.83, 0.99, 1.15, and 1.32 × 10^−5 M. To obtain quantitative information on the binding capacity of 23 to HSA, Stern-Volmer, double-logarithmic, van’t Hoff, and Gibbs’ free energy analysis were applied following our previous works.

[2] = target: T1, human serum albumin (HSA); test: Competitive binding with HSA site probes (warfarin, ibuprofen, digitoxin)
Experimental: Competitive binding studies were carried out using site probes for sites I, II, and III, i.e., warfarin, ibuprofen, and digitoxin, respectively. The HSA and site probes were used at a fixed concentration (1.0 × 10^−5 M), and the fluorescence quenching titration with compound 23 was performed as described previously for the steady-state fluorescence quenching procedure at 310 K.

[3] = target: T1, human serum albumin (HSA); test: Time-resolved fluorescence of HSA; assay type: binding; conditions: HSA 1.0 × 10^−5 M with 23 1.32 × 10^−5 M, pH 7.4, 296 K
Experimental: Time-resolved fluorescence measurements were performed on a model FL920 CD fluorimeter from Edinburgh Instruments equipped with an EPL laser (λexc = 280 ± 10 nm; pulse of 850 ps with energy of 1.8 µW/pulse; monitoring emission at 340 nm). The time-resolved fluorescence decays of a 3.0 mL HSA solution (1.0 × 10^−5 M, in PBS) were obtained without and with compound 23 (1.32 × 10^−5 M).

[4] = target: T1, human serum albumin (HSA); test: Circular dichroism of HSA; assay type: binding; conditions: HSA 1.0 × 10^−6 M, proportion 1:10, 310 K
Experimental: The CD analysis was carried out using 3.0 mL of HSA solution (1.0 × 10^−6 M, in PBS) without and with 23 in the proportion 1:10 in the 200–250 nm range at 310 K. The average spectra were obtained from three successive runs and corrected by subtraction of the buffer signal. The secondary structure content was estimated by analysis of the CD spectra using the online server BestSel (Beta Structure Selection http://bestsel.elte.hu/index.php; accessed on 12 March 2022).

## COc1cc(/C=C/c2nc(-c3cc(OC)c(OC)c(OC)c3)no2)cc(OC)c1OC [Compound 23, (E)-3-(3,4,5-trimethoxyphenyl)-5-[2-(3,4,5-trimethoxyphenyl)-vinyl]-1,2,4-oxadiazole]
[1]; 289 K
  ΔG°: −28.7 kJmol^−1
  KSV (Stern-Volmer quenching constant): 1.56 ± 0.02 × 10^5 M^−1
  kq (bimolecular quenching rate constant): 3.22e+13 M⁻¹ s⁻¹
  n (number of binding sites): 0.992 ± 0.01
[1]; 289–317 K
  KSV values, order of magnitude: ~10^5 M^−1
  kq values, order of magnitude: ~10^13 M^−1s^−1
[1]; 296 K
  ΔG°: −29.2 kJmol^−1
  KSV (Stern-Volmer quenching constant): 1.44 ± 0.02 × 10^5 M^−1
  kq (bimolecular quenching rate constant): 2.97e+13 M⁻¹ s⁻¹
  n (number of binding sites): 1.04 ± 0.01
[1]; 303 K
  ΔG°: −29.7 kJmol^−1
  KSV (Stern-Volmer quenching constant): 1.31 ± 0.07 × 10^5 M^−1
  kq (bimolecular quenching rate constant): 2.7e+13 M⁻¹ s⁻¹
  n (number of binding sites): 1.09 ± 0.01
[1]; 310 K
  ΔG°: −30.2 kJmol^−1
  KSV (Stern-Volmer quenching constant): 1.22 ± 0.01 × 10^5 M^−1
  kq (bimolecular quenching rate constant): 2.52e+13 M⁻¹ s⁻¹
  n (number of binding sites): 1.02 ± 0.01
[1]; 317 K
  ΔG°: −30.7 kJmol^−1
  KSV (Stern-Volmer quenching constant): 1.19 ± 0.02 × 10^5 M^−1
  kq (bimolecular quenching rate constant): 2.45e+13 M⁻¹ s⁻¹
  n (number of binding sites): 1.02 ± 0.01
[1]; van't Hoff analysis, 289–317 K
  ΔH°: −7.85 ± 0.71 kJmol^−1
  ΔS°: 72.2 ± 2.3 J/(mol·K)
[2]; 310 K
  decrease of the KSV value in the presence of warfarin: 14%
[2]; competitive binding with site probes
  main binding site in HSA: subdomain IIA (site I)
[3]
  %Relative τ1 of HSA:23: 23.5%
  %Relative τ2 of HSA:23: 76.5%
  τ1 of HSA:23: 1.59 ± 0.11 ns
  τ2 of HSA:23: 5.70 ± 0.12 ns
  τaverage of HSA:23: 4.73 ± 0.11 ns
[4]
  effect on the secondary content of HSA (CD): does not significantly perturb
